Legend:
recombinant human CSE = recombinant human CSE (Homo sapiens, UniProt P32929); assay: CSE activity (AzMC probe assay), H2S production by recombinant human CSE; assay type: biochemical; conditions: for CSE activity (AZMC probe assay) % of activation: (RFU compound max - RFU compound 0/RFU CSE 2 ug - RFU compound 0)*100; for EC50: EC50 calculated by the four-parameter logistic model
Description: The activity of recombinant human CSE (rCSE) was tested in the presence of C5, compound 8 (50 uM), Z20 compound 13 (50 uM) or vehicle (DMSO). Briefly, compounds were added in reaction buffer (50 mM Tris-HCl, pH 8) containing 2 μg of rCSE, 10 mM CSE substrate L-cysteine, 5 uM pyridoxal 5′-phosphate (PLP). After addition of 10 μM of the H2S sensitive fluorescent probe 7-azido-4-methylcoumarin (AzMC) in a total volume of 100 μl, fluorescence was immediately measured in kinetic mode for 2 h at 37° C. with SpectraMax M5 reader, with excitation and emission wavelengths of 365 nm and 450 nm, respectively. Statistical analysis was determined using simple linear regression with p<0.0001 for C5 vs. vehicle and p<0.0002 for Z20 vs. vehicle.
Recombinant human CSE (1 μg/well) was incubated with various concentrations of compounds (all in final 0.1% DMSO), or with 0.1% DMSO as a control, in 10 mM sodium phosphate buffer pH 8.2. Next, 10 mM L-cysteine and 1 mM PLP and 10 μM of the probe AzMC were then added to reach 100 μL total volume. Fluorescence was measured for 3 h at 37° C. with excitation and emission wavelengths of 365 nm and 450 nm, respectively, in a 96-well half area black plate with transparent bottom.
Dose-response curve of each compound was performed, using triplicate wells for each tested doses. The background (10 mM sodium phosphate buffer with L-cysteine, PLP and AzMC) was subtracted from all values. Each mean value was converted to percent activity (0% defined as the smallest mean in each data set, 100% defined as the highest mean in each data set). The data were normalized using the four parameter logistic model (4PL) equation to calculate EC50 using GraphPad Prism.

MOVAS cells [1] = assay: Cytotoxicity assay, LDH release; assay type: cell-based, mouse
Description: A) Alizarin red staining of MOVAS cells stimulated with CPP for 24 h in DMEM+10% FBS in presence of different concentrations of compound 22401. […] The background (Alizarin red staining obtained with cells in the absence of CPP) was subtracted from all values. B) Percentage of cytotoxicity, as measured by LDH release, in MOVAS cells in the same conditions as A). Statistical analysis was determined using one-way ANOVA with *p<0.05, **p<0.01, ***p<0.001.
Measurement of lactate dehydrogenase (LDH) as a means of cytotoxicity assay was performed with using CytoTox-ONE Homogeneous Membrane Integrity Assay (Promega) according to the manufacturer's instructions. Values were calculated as percentage of cytotoxicity using the following formula: [(value in sample)−(background)]/[(value in Triton X-100-treated sample)−(background)]×100.

MOVAS cells [2] = assay: MOVAS cell calcification assay (Alizarin red); assay type: cell-based, mouse; conditions: Mus musculus, MOVAS, read-out: Calcification assay Max calcification inhibition (%) at the indicated dose of compound
Description: A) Alizarin red staining of MOVAS cells stimulated with sCPP for 24 h in DMEM+10% FBS and treated or not with 50 uM of compounds. […] Statistical analysis was determined using one-way ANOVA with ***p<0.001. C) Percentage of cytotoxicity (LDH %) in MOVAS treated or not with compounds for 24 h. D) MOVAS cells were seeded onto half-area 96-well plate and incubated overnight. Then C5 or C6 at 50 uM or vehicle (DMSO), L-cysteine at 10 mM, PLP at 5 uM and the H2S sensitive fluorescent probe AzMC at 10 μM were added. The fluorescence was immediately measured in kinetic mode for 2 h at 37° C. with SpectraMax M5 reader, with excitation and emission wavelengths of 365 nm and 450 nm, respectively.
A) Alizarin red staining of Movas cells stimulated with sCPP for 24 h in DMEM+10% FBS and treated or not with 50 uM of Z20. […] C) Percentage of cytotoxicity (LDH %) in murine chondrocytes treated or not with Z20 for 24 h. Statistical analysis was determined using one-way ANOVA with ***p<0.001.
Alizarin red staining of MOVAS cells stimulated with sCPP for 24 h in DMEM+10% FBS and treated or not with different concentrations of compounds (A: C6) and (B: Z20). The graphs show Alizarin red absorbance at 570-630 nm. Statistical analysis was determined using one-way ANOVA with *p<0.05, **p<0.01, ***p<0.001.
CPP were generated by preparing 20 ml DMEM containing 10% FBS, 1 mmol/L CaCl2, 3.5 mmol/L inorganic phosphate (1.36 mmol/L NaH2PO4 and 2.14 mmol/L Na2HPO4) (Aghagolzadeh et al. Atherosclerosis, 2016). After 7 days incubation at 37° C., the suspension was centrifuged at 25000 g for 2 h at 4° C., and the pellet containing CPP was resuspended in 1 ml DMEM and stored at −20° C. until further use.
Mouse vascular smooth muscle cell line (MOVAS) cells were cultured according to the manufacturer's guidelines in DMEM culture medium supplemented with 10% FBS. Cells were cultured at 37° C. in a humidified atmosphere with 5% CO2. All cell culture experiments in 96-well plates were performed in triplicates and were repeated independently two times.
For calcification experiments, cells were seeded in 96-well plates at a density of 50,000 cells/well and left to attach for 18 h. Calcification of cell monolayers was induced by CPP (equivalent to 50 μg Ca/mL) for 24 h at 37° C., 5% CO2 in presence of various concentrations of compounds (all in final 0.1% DMSO), or of 0.1% DMSO as a control, to reach a final volume of 200 μl/well. Calcium deposition was assessed by 0.5% w/v Alizarin Red staining (pH 4.2). Briefly, after PBS washing, methanol fixation for 10 min at 4° C., and milli-Q water washing, cells were incubated for 60 min with 200 μL Alizarin Red solution and then washed four times with milli-Q water. Quantification was performed after crystal dissolution with cetylpyridinium chloride (10%) for 18 h. The absorbance was measured at 570 and 630 nm using the Spectramax M5e reader (Molecular Devices). The background (alizarin red staining obtained with cells in the absence of CPP) was subtracted from all values.

Chain of recombinant human CSE (P32929 whole entry): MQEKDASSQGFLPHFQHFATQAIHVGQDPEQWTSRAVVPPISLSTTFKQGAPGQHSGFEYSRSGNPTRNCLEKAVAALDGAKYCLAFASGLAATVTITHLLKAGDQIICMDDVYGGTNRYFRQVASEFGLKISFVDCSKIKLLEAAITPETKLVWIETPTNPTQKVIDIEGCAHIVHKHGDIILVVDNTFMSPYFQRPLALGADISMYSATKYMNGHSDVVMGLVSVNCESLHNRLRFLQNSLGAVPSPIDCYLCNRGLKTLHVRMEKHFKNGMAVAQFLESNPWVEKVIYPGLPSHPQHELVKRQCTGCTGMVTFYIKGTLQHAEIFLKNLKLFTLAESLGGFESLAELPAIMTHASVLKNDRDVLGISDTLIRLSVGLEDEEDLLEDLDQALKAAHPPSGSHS

Row | Structure (SMILES) | CSE activity (AZMC probe assay) % of activation (recombinant human CSE) [%] | EC50 (recombinant human CSE) [nM] | Cytotoxicity assay LDH release (% of cytotoxicity) (MOVAS cells [1]; no dose given) [%] | also measured
1 | O=C(Nc1cnn(CC2CCCO2)c1)c1cccc2[nH]ccc12 (centres unmarked) [Compound 44, N-(1-((tetrahydrofuran-2-yl)methyl)-1H-pyrazol-4-yl)-1H-indole-4-carboxamide] | 73 | 29 | – | Cytotoxicity assay LDH release (% of cytotoxicity) (MOVAS cells [1]; at 0.3 uM): 12% at; inhibition at 0.3 µM (MOVAS cells [2]): 37%
2 | N#Cc1cccc(C(=O)Nc2cnn(CC3CCCO3)c2)c1 (centres unmarked) [Compound 45, 3-cyano-N-(1-((tetrahydrofuran-2-yl)methyl)-1H-pyrazol-4-yl)benzamide] | 59 | 39.6 | – | Cytotoxicity assay LDH release (% of cytotoxicity) (MOVAS cells [1]; at 5 uM): 12% at; inhibition at 5 µM (MOVAS cells [2]; at 5 uM): 57%
3 | CCn1cnc2c(Nc3cnn(CC4CCCO4)c3)ncnc21 (centres unmarked) [Compound 19, 9-ethyl-N-(1-((tetrahydrofuran-2-yl)methyl)-1H-pyrazol-4-yl)-9H-purin-6-amine] | 28 | 41.8 | – | Cytotoxicity assay LDH release (% of cytotoxicity) (MOVAS cells [1]; at 50 uM): 15% at; inhibition at 50 µM (MOVAS cells [2]; at 50 uM): 48%
4 | CCCn1cc(Nc2ncnc3c2ncn3CC)cn1 [Compound 33, 9-ethyl-N-(1-propyl-1H-pyrazol-4-yl)-9H-purin-6-amine] | 59 | 19.7 | 20 | –
5 | CCn1cnc2c(Nc3cnn(C)c3)ncnc21 [Compound 25, 9-ethyl-N-(1-methyl-1H-pyrazol-4-yl)-9H-purin-6-amine] | 56 | 26 | 20 | –
6 | O=C(Nc1cnn(CC2CCCO2)c1)c1cccc(F)c1 (centres unmarked) [Compound 39, 3-fluoro-N-(1-((tetrahydrofuran-2-yl)methyl)-1H-pyrazol-4-yl)benzamide] | 33 | 137 | – | Cytotoxicity assay LDH release (% of cytotoxicity) (MOVAS cells [1]; at 20 uM): 8% at; inhibition at 20 µM (MOVAS cells [2]): 30%
7 | O=C(Nc1cnn(CC2CCCO2)c1)c1ccc2ccccc2c1 (centres unmarked) [Compound 40, N-(1-((tetrahydrofuran-2-yl)methyl)-1H-pyrazol-4-yl)-2-naphthamide] | 65 | 4.4 | – | Cytotoxicity assay LDH release (% of cytotoxicity) (MOVAS cells [1]; at 0.3 uM): 10% at; inhibition at 0.3 µM (MOVAS cells [2]): 56%
8 | Cn1cc(Nc2ncccn2)cn1 [Compound 26, N-(1-methyl-1H-pyrazol-4-yl)pyrimidin-2-amine] | 57 | 38.5 | 20 | –
9 | O=C(Nc1cnn(CC2CCCO2)c1)c1ccccc1 (centres unmarked) [Compound 36, N-(1-((tetrahydrofuran-2-yl)methyl)-1H-pyrazol-4-yl)benzamide] | 62 | 15.8 | – | Cytotoxicity assay LDH release (% of cytotoxicity) (MOVAS cells [1]; at 0.07 uM): 12% at; inhibition at 0.07 µM (MOVAS cells [2]; at 0.07 uM): 42%
10 | c1cnc(Nc2cnn(CC3CCCO3)c2)nc1 (centres unmarked) [Compound 32] | 76 | 35.2 | – | Cytotoxicity assay LDH release (% of cytotoxicity) (MOVAS cells [1]; at 2 uM): 15% at; inhibition at 2 µM (MOVAS cells [2]; at 2 uM): 36%
11 | O=[N+]([O-])c1ccc(Nc2cnn(CC3CCCO3)c2)cc1 (centres unmarked) [Compound 35, N-(4-nitrophenyl)-1-((tetrahydrofuran-2-yl)methyl)-1H-pyrazol-4-amine] | 109 | 43 | – | Cytotoxicity assay LDH release (% of cytotoxicity) (MOVAS cells [1]; at 0.3 uM): 4% at; inhibition at 0.3 µM (MOVAS cells [2]): 23%
12 | c1cc(Nc2cnn(CC3CCCO3)c2)ncn1 (centres unmarked) [Compound 20, N-(1-((tetrahydrofuran-2-yl)methyl)-1H-pyrazol-4-yl)pyrimidin-4-amine] | 46 | 21 | – | Cytotoxicity assay LDH release (% of cytotoxicity) (MOVAS cells [1]; at 20 uM): 16% at; inhibition at 20 µM (MOVAS cells [2]): 23%
13 | c1cnc(Nc2cnn(CC3CCCCC3)c2)nc1 [Compound 31, N-(1-(cyclohexylmethyl)-1H-pyrazol-4-yl)pyrimidin-2-amine] | 61 | 67.4 | 15 | –
14 | CCn1cnc2c(Nc3cnn(CCOC)c3)ncnc21 [Compound 47, 9-ethyl-N-(1-(2-methoxyethyl)-1H-pyrazol-4-yl)-9H-purin-6-amine] | 106 | 38.9 | – | Cytotoxicity assay LDH release (% of cytotoxicity) (MOVAS cells [1]; at 20 uM): 25% at; inhibition at 20 µM (MOVAS cells [2]): 37%
15 | CCn1cnc2c(Nc3cnn(CC4CCCCC4)c3)ncnc21 [Compound 30, N-(1-(cyclohexylmethyl)-1H-pyrazol-4-yl)-9-ethyl-9H-purin-6-amine] | 39 | 31.8 | – | Cytotoxicity assay LDH release (% of cytotoxicity) (MOVAS cells [1]; at 20 uM): 5% at; inhibition at 20 µM (MOVAS cells [2]): 80%
16 | CCn1cnc2c(Nc3cnn(Cc4ccccn4)c3)ncnc21 [Compound 34, 9-ethyl-N-(1-(pyridin-2-ylmethyl)-1H-pyrazol-4-yl)-9H-purin-6-amine] | 35 | 31.7 | 20 | –
